One may read the DC50 as the concentration giving 50% degradation. The term Dmax denotes the greatest extent of degradation seen. Low values mean a partial loss of target, high ones a fuller loss of target.

Data on 13 compounds can be found in patent publication US12180193B2, “Accelerating fibrosarcoma protein degrading compounds and associated methods of use” (Arvinas Operations, Inc., priority 2020, dated 2024).

One experiment has as its target T1, BRAF V600E (Homo sapiens, UniProt P15056, V600E).
T1 construct: expressed in transfected cells
The experiment can be described thus: Cellular assay of target protein degradation, T-Rex 293 cells stably transfected with HA-BRAF_V600E (HA immunofluorescence, high content imaging). It counts as cell-based. Conditions: T-Rex 293 HA-BRAF V600E; for DC50: half maximal degradation, read-out: BRaf V600E DC50; for Dmax: maximum degradation observed. The method in brief:
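24 h compound exposure, 1 μM–0.1 nM final, 0.1% DMSO, 37 °C; cells induced with 1 ng/mL doxycycline. PFA fix, Triton permeabilize, anti-HA overnight 4 °C, Hoechst/phalloidin counterstain. Output: DC50, Dmax as % control.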

The next experiment has as its target T2, BRAF G466V (Homo sapiens, UniProt P15056, G466V).
T2 construct: expressed in transfected cells
The experiment can be described thus: Cellular assay of target protein degradation, T-Rex 293 cells stably transfected with HA-BRAF G466V (HA immunofluorescence, high content imaging). It counts as cell-based. Conditions: T-Rex 293 HA-BRAF G466V; for DC50: half maximal degradation, read-out: BRaf G466V DC50; for Dmax: maximum degradation observed. The method in brief: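 24 h compound, 30 nM–3 pM final, 0.1% DMSO, 37° C; HA-BRAF G466V induced with 0.75 ng/mL doxycycline. PFA fix, Triton perm, anti-HA + Alexa fluor secondary, Hoechst/phalloidin counterstain; imaging. DC50, Dmax (% of control).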

T1 sequence (P15056 whole entry V600E): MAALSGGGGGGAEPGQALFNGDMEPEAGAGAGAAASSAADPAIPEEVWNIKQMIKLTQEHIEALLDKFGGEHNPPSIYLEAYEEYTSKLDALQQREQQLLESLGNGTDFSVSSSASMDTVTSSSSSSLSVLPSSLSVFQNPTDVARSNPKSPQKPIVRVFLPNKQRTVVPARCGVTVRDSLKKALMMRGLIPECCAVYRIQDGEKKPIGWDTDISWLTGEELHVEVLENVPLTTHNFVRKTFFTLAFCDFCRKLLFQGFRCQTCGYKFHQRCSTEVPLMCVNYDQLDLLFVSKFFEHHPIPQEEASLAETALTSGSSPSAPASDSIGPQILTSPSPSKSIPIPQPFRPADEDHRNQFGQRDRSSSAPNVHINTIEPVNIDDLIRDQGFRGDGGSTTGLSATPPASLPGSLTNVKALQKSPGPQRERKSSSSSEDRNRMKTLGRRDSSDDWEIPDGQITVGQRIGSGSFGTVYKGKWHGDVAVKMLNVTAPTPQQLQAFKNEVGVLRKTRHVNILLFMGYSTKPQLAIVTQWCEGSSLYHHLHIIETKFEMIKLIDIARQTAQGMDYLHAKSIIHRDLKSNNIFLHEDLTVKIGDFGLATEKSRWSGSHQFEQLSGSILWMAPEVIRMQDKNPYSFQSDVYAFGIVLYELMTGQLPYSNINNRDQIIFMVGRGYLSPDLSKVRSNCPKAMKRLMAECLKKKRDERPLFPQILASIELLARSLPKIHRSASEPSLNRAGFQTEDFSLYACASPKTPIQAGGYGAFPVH
T2 sequence (P15056 whole entry G466V): as the sequence (P15056 whole entry V600E) above, with G466V, E600V counted along it

Regarding `O=C1CC[C@H](NC(=O)N2CCCc3c(N4CCN(CC5CCN(c6ccc(-c7cnc8[nH]cc(C(=O)c9c(F)ccc(NS(=O)(=O)N%10CC[C@@H](F)C%10)c9F)c8c7)cc6)CC5)CC4)ccnc32)C(=O)N1` [Compound 369, 5-(4-{[1-(4-{3-[2,6-difluoro-3-({[(3R)-3-fluoropyrrolidin-1-yl]sulfonyl}amino)benzoyl]-1H-pyrrolo[2,3-b]pyridin-5-yl}phenyl)piperidin-4-yl]methyl}piperazin-1-yl)-N-[(3S)-2,6-dioxopiperidin-3-yl]-1,2,3,4-tetrahydro-1,8-naphthyridine-1-carboxamide], the values for the half-maximal degradation concentration (DC50) on BRAF V600E and on BRAF G466V were 5 to 50 nM and 1 to 10 nM, respectively. The Dmax was 35 to 70% on BRAF V600E and greater than 70% at BRAF G466V.
As for `O=C1CCC(NC(=O)N2CCCc3c(N4CCN(CC5CCN(c6ccc(-c7cnc8[nH]cc(C(=O)c9c(F)ccc(NS(=O)(=O)N%10CC[C@@H](F)C%10)c9F)c8c7)cc6)CC5)CC4)ccnc32)C(=O)N1` (stereo partly drawn) [Compound 370, 5-(4-{[1-(4-{3-[2,6-difluoro-3-({[(3R)-3-fluoropyrrolidin-1-yl]sulfonyl}amino)benzoyl]-1H-pyrrolo[2,3-b]pyridin-5-yl}phenyl)piperidin-4-yl]methyl}piperazin-1-yl)-N-(2,6-dioxopiperidin-3-yl)-1,2,3,4-tetrahydro-1,8-naphthyridine-1-carboxamide], on BRAF V600E, the 50% degradation concentration (DC50) lay within 5 to 50 nM and the Dmax lay within 35 to 70%. Besides, at BRAF G466V, the DC50 was in the range of 1 to 10 nM and the Dmax is greater than 70%.
The corresponding values for `O=C1CC[C@H](NC(=O)N2CCCc3c(N4CCC(CN5CCN(c6ccc(-c7cnc8[nH]cc(C(=O)c9c(F)ccc(NS(=O)(=O)N%10CC[C@@H](F)C%10)c9F)c8c7)cc6)CC5)CC4)ccnc32)C(=O)N1` [Compound 371, 5-(4-{[4-(4-{3-[2,6-difluoro-3-({[(3R)-3-fluoropyrrolidin-1-yl]sulfonyl}amino)benzoyl]-1H-pyrrolo[2,3-b]pyridin-5-yl}phenyl)piperazin-1-yl]methyl}piperidin-1-yl)-N-[(3S)-2,6-dioxopiperidin-3-yl]-1,2,3,4-tetrahydro-1,8-naphthyridine-1-carboxamide] are 50 to 500 nM, greater than 70%, 1 to 10 nM and greater than 70%.
For the compound `O=C1CC[C@@H](NC(=O)N2CCCc3c(N4CCC(CN5CCN(c6ccc(-c7cnc8[nH]cc(C(=O)c9c(F)ccc(NS(=O)(=O)N%10CC[C@@H](F)C%10)c9F)c8c7)cc6)CC5)CC4)ccnc32)C(=O)N1` [Compound 372, 5-(4-{[4-(4-{3-[2,6-difluoro-3-({[(3R)-3-fluoropyrrolidin-1-yl]sulfonyl}amino)benzoyl]-1H-pyrrolo[2,3-b]pyridin-5-yl}phenyl)piperazin-1-yl]methyl}piperidin-1-yl)-N-[(3R)-2,6-dioxopiperidin-3-yl]-1,2,3,4-tetrahydro-1,8-naphthyridine-1-carboxamide], the DC50 at BRAF V600E was greater than 500 nM; on BRAF G466V it was greater than 30 nM.
For `O=C1CC[C@H](NC(=O)c2ccc(N3CC4(CN(CCc5ccc(-c6cnc7[nH]cc(C(=O)c8c(F)ccc(NS(=O)(=O)N9CC[C@@H](F)C9)c8F)c7c6)cc5)C4)C3)cc2F)C(=O)N1` [Compound 373, 4-[6-(2-[4-[3-(2,6-difluoro-3-[[(3R)-3-fluoropyrrolidin-1-ylsulfonyl]amino]benzoyl)-1H-pyrrolo[2,3-b]pyridin-5-yl]phenyl]ethyl)-2,6-diazaspiro[3.3]heptan-2-yl]-N-[(3S)-2,6-dioxopiperidin-3-yl]-2-fluorobenzamide], the 50% degradation concentration (DC50) on BRAF V600E was 5 to 50 nM; on BRAF G466V, 1 to 10 nM. Besides, the Dmax at BRAF V600E is 35 to 70%; at BRAF G466V, greater than 70%.
The corresponding values for `O=C1CCC(NC(=O)c2ccc(N3CC4(CN(CCc5ccc(-c6cnc7[nH]cc(C(=O)c8c(F)ccc(NS(=O)(=O)N9CC[C@@H](F)C9)c8F)c7c6)cc5)C4)C3)cc2F)C(=O)N1` (stereo partly drawn) [Compound 374, 4-{6-[2-(4-{3-[2,6-difluoro-3-({[(3R)-3-fluoropyrrolidin-1-yl]sulfonyl}amino)benzoyl]-1H-pyrrolo[2,3-b]pyridin-5-yl}phenyl)ethyl]-2,6-diazaspiro[3.3]heptan-2-yl}-N-(2,6-dioxopiperidin-3-yl)-2-fluorobenzamide] are 5 to 50 nM, less than 1 nM, 35 to 70% and 35 to 70%.
`O=C1CC[C@H](NC(=O)c2ccc(C3CCN(CC4CCN(c5ncc(-c6cnc7[nH]cc(C(=O)c8c(F)ccc(NS(=O)(=O)N9CC[C@@H](F)C9)c8F)c7c6)cn5)CC4)CC3)cc2F)C(=O)N1` [Compound 375, 4-(1-{[1-(5-{3-[2,6-difluoro-3-({[(3R)-3-fluoropyrrolidin-1-yl]sulfonyl}amino)benzoyl]-1H-pyrrolo[2,3-b]pyridin-5-yl}pyrimidin-2-yl)piperidin-4-yl]methyl}piperidin-4-yl)-N-[(3S)-2,6-dioxopiperidin-3-yl]-2-fluorobenzamide]: on BRAF V600E, the DC50 is 50 to 500 nM and the Dmax lay within 35 to 70%. Further, on BRAF G466V, the DC50 was in the range of 1 to 10 nM and the Dmax lay in the range of 35 to 70%.
For the compound `O=C1CCC(NC(=O)c2ccc(C3CCN(CC4CCN(c5ncc(-c6cnc7[nH]cc(C(=O)c8c(F)ccc(NS(=O)(=O)N9CC[C@@H](F)C9)c8F)c7c6)cn5)CC4)CC3)cc2F)C(=O)N1` (stereo partly drawn) [Compound 376, 4-(1-{[1-(5-{3-[2,6-difluoro-3-({[(3R)-3-fluoropyrrolidin-1-yl]sulfonyl}amino)benzoyl]-1H-pyrrolo[2,3-b]pyridin-5-yl}pyrimidin-2-yl)piperidin-4-yl]methyl}piperidin-4-yl)-N-(2,6-dioxopiperidin-3-yl)-2-fluorobenzamide], at BRAF V600E, the half-maximal degradation concentration (DC50) lay in the range of 50 to 500 nM and the greatest degradation seen (Dmax) was 35 to 70%. Besides, on BRAF G466V, the 50% degradation concentration (DC50) was in the range of 1 to 10 nM and the Dmax was 35 to 70%.
As for `O=C1CC[C@H](NC(=O)c2ccc(N3CCN(CCN4CCN(c5ccc(-c6cnc7[nH]cc(C(=O)c8c(F)ccc(NS(=O)(=O)N9CC[C@@H](F)C9)c8F)c7c6)cc5)CC4)CC3)cc2F)C(=O)N1` [Compound 377, 4-(4-{2-[4-(4-{3-[2,6-difluoro-3-({[(3R)-3-fluoropyrrolidin-1-yl]sulfonyl}amino)benzoyl]-1H-pyrrolo[2,3-b]pyridin-5-yl}phenyl)piperazin-1-yl]ethyl}piperazin-1-yl)-N-[(3S)-2,6-dioxopiperidin-3-yl]-2-fluorobenzamide], at BRAF V600E, the 50% degradation concentration (DC50) is 5 to 50 nM and the maximal degradation (Dmax) fell in the range of 35 to 70%. On BRAF G466V, the DC50 is 1 to 10 nM and the Dmax lay in the range of 35 to 70%.
Turning to `O=C1CCC(NC(=O)c2ccc(N3CCN(CCN4CCN(c5ccc(-c6cnc7[nH]cc(C(=O)c8c(F)ccc(NS(=O)(=O)N9CC[C@@H](F)C9)c8F)c7c6)cc5)CC4)CC3)cc2F)C(=O)N1` (stereo partly drawn) [Compound 378, 4-(4-{2-[4-(4-{3-[2,6-difluoro-3-({[(3R)-3-fluoropyrrolidin-1-yl]sulfonyl}amino)benzoyl]-1H-pyrrolo[2,3-b]pyridin-5-yl}phenyl)piperazin-1-yl]ethyl}piperazin-1-yl)-N-(2,6-dioxopiperidin-3-yl)-2-fluorobenzamide], at BRAF V600E, the half-maximal degradation concentration (DC50) lay in the range of 5 to 50 nM and the Dmax is less than 35%. At BRAF G466V, the DC50 was less than 1 nM and the maximal degradation (Dmax) was less than 35%.
As to `O=C1CC[C@H](NC(=O)N2CCCc3c(N4CC5(CN(CCc6ccc(-c7cnc8[nH]cc(C(=O)c9c(F)ccc(NS(=O)(=O)N%10CC[C@@H](F)C%10)c9F)c8c7)cc6)C5)C4)ccnc32)C(=O)N1` [Compound 379, 5-{6-[2-(4-{3-[2,6-difluoro-3-({[(3R)-3-fluoropyrrolidin-1-yl]sulfonyl}amino)benzoyl]-1H-pyrrolo[2,3-b]pyridin-5-yl}phenyl)ethyl]-2,6-diazaspiro[3.3]heptan-2-yl}-N-[(3S)-2,6-dioxopiperidin-3-yl]-1,2,3,4-tetrahydro-1,8-naphthyridine-1-carboxamide], on BRAF V600E, the DC50 is 50 to 500 nM and the Dmax is 35 to 70%. For the same compound, at BRAF G466V, the DC50 was in the range of 1 to 10 nM and the maximal degradation (Dmax) lay within 35 to 70%.
As to `O=C1CC[C@@H](NC(=O)N2CCCc3c(N4CC5(CN(CCc6ccc(-c7cnc8[nH]cc(C(=O)c9c(F)ccc(NS(=O)(=O)N%10CC[C@@H](F)C%10)c9F)c8c7)cc6)C5)C4)ccnc32)C(=O)N1` [Compound 380, 5-{6-[2-(4-{3-[2,6-difluoro-3-({[(3R)-3-fluoropyrrolidin-1-yl]sulfonyl}amino)benzoyl]-1H-pyrrolo[2,3-b]pyridin-5-yl}phenyl)ethyl]-2,6-diazaspiro[3.3]heptan-2-yl}-N-[(3R)-2,6-dioxopiperidin-3-yl]-1,2,3,4-tetrahydro-1,8-naphthyridine-1-carboxamide], on BRAF V600E, the DC50 was greater than 500 nM. For the same compound, on BRAF G466V, the DC50 was 1 to 10 nM and the Dmax was less than 35%.
For `O=C1CCC(N2Cc3cc(N4CCC(N5CCC56CN(c5ccc(-c7cnc8[nH]cc(C(=O)c9c(F)ccc(NS(=O)(=O)N%10CC[C@@H](F)C%10)c9F)c8c7)cc5)C6)CC4)ccc3C2=O)C(=O)N1` (stereo partly shown) [Example 9], the half-maximal degradation concentration (DC50) at BRAF V600E was 50 to 500 nM; on BRAF G466V it was 1 to 10 nM. Besides, the Dmax on BRAF V600E and on BRAF G466V was 35 to 70% each time.
